Data on 5 molecules can be found in US12552846B2, “Modified BCL9 mimetic peptides” (Sapience Therapeutics, Inc., priority 2019, dated 2026).

Each structure is given as a SMILES string. Square brackets hold non-standard residues; d marks the D form. Peptide text beside a SMILES is read from it.

The test system of this assay is HL60 promyelocytic leukemia cells. The assay is described as follows: Cytotoxicity assay in HL60 cells (Annexin V FITC / PI flow cytometry). The format is cell-based. Particulars: 48 hours, 0-80 μM, % Viability (Annexin V low, PI low). As to the method:
We examined the cytotoxicity of peptides BCL-26 and BCL-27 using an assay in HL60 promyelocytic leukemia cells. HL60 PML suspension cells were set at a density of 3.5×10^3 cells/well in 150 μL of RPMI+1.5% fetal bovine serum (FBS) in a 96 well dish. BCL-26 or BCL-27, reconstituted at a concentration of 10 mg/mL in 20 mM His, pH 7.5, was added to each well at a volume of 50 μL to a final concentration range of 0-80 μM. Cells were incubated with peptide for 48 hours at 37° C. Cell viability was quantified by flow cytometry using abcam Annexin V FITC apoptosis detection kit. Briefly, cells were washed with PBS and resuspended in 1× assay buffer containing Annexin V FITC and propidium iodide (PI). Annexin V detects apoptotic cells, and PI stains dead cells. After staining, apoptotic cells show green fluorescence, dead cells show red and green fluorescence, and live cells show little or no fluorescence. Cells were selected for analysis based on forward scatter (FSC) vs. side scatter (SSC), and analyzed by BD Accuri C6 Plus flow cytometer to detect Annexin V-FITC binding (Ex=488 nm; Em=530 nm) using FITC signal detector and PI staining by the phycoerythrnn emission signal detector. Percentage of Annexin V^low and PI^low were quantified and presented as % Viability.
We examined the cytotoxicity of additional retro inverso and mixed chirality BCL9 mimetic peptides in HL60 cells using the assay described above.
In general terms: In flow cytometry, cells or beads pass a laser one at a time.
By EC50 is commonly meant the concentration that produces a half-maximal response. The low end stands for higher potency in that assay, the high end for lower potency in that assay. The molecule `CC(C)C[C@@H](NC(=O)[C@@H](Cc1c[nH]c2ccccc12)NC(=O)[C@H](N)Cc1c[nH]c2ccccc12)C(=O)N[C@H](C)C(=O)N[C@H](CCCNC(=N)N)C(=O)N[C@H](CCC(N)=O)C(=O)N[C@H](CC(C)C)C(=O)N[C@H](CCC(=O)O)C(=O)N[C@H](CCCNC(=N)N)C(=O)N[C@H](CC(C)C)C(=O)N[C@H](C)C(=O)N[C@H](CCC(N)=O)C(=O)N[C@H](CC(C)C)C(=O)N[C@H](C)C(=O)N[C@H](CCCCN)C(=O)N[C@H](CC(C)C)C(=O)N[C@@H](C(=O)N1CCC[C@@H]1C(=O)N[C@@H](C(=O)O)C(C)C)[C@H](C)O` [BCL-76] (H-[dW][dW][dL][dA][dR][dQ][dL][dE][dR][dL][dA][dQ][dL][dA][dK][dL][dT][dP][dV]-OH; N-terminus and C-terminus assumed) had an EC50 of more than 10000 nM.

Regarding `CC(C)C[C@@H](NC(=O)[C@@H](Cc1c[nH]c2ccccc12)NC(=O)[C@H](N)Cc1c[nH]c2ccccc12)C(=O)N[C@H](C)C(=O)N[C@H](CCCNC(=N)N)C(=O)N[C@H](CCC(N)=O)C(=O)N[C@H](CC(C)C)C(=O)N[C@H](C)C(=O)N[C@H](CCCNC(=N)N)C(=O)N[C@H](CC(C)C)C(=O)N[C@H](CCC(N)=O)C(=O)N[C@H](CCC(N)=O)C(=O)N[C@H](CC(C)C)C(=O)N[C@H](C)C(=O)N[C@H](CCCCN)C(=O)N[C@H](CC(C)C)C(=O)N[C@@H](C(=O)N1CCC[C@@H]1C(=O)N[C@@H](C(=O)O)C(C)C)[C@H](C)O` [BCL-85] (H-[dW][dW][dL][dA][dR][dQ][dL][dA][dR][dL][dQ][dQ][dL][dA][dK][dL][dT][dP][dV]-OH; N-terminus and C-terminus assumed), the EC50 was less than 2000 nM.

`CC(C)C[C@@H](NC(=O)[C@@H](Cc1c[nH]c2ccccc12)NC(=O)[C@@H](N)Cc1c[nH]c2ccccc12)C(=O)N[C@H](C)C(=O)N[C@H](CCCNC(=N)N)C(=O)N[C@H](CCC(N)=O)C(=O)N[C@H](CC(C)C)C(=O)N[C@H](C)C(=O)N[C@H](CCCNC(=N)N)C(=O)N[C@H](CC(C)C)C(=O)N[C@H](CCCNC(=N)N)C(=O)N[C@H](CCC(N)=O)C(=O)N[C@H](CC(C)C)C(=O)N[C@H](C)C(=O)N[C@H](CCCCN)C(=O)N[C@H](CC(C)C)C(=O)N[C@@H](C(=O)N1CCC[C@@H]1C(=O)N[C@@H](C(=O)O)C(C)C)[C@H](C)O` [BCL-96] (H-W[dW][dL][dA][dR][dQ][dL][dA][dR][dL][dR][dQ][dL][dA][dK][dL][dT][dP][dV]-OH; N-terminus and C-terminus assumed) registered an EC50 of less than 2000 nM.

Consider `CC(C)C[C@@H](NC(=O)[C@@H](Cc1c[nH]c2ccccc12)NC(=O)[C@@H](N)Cc1c[nH]c2ccccc12)C(=O)N[C@H](C)C(=O)N[C@H](CCCNC(=N)N)C(=O)N[C@H](CCC(N)=O)C(=O)N[C@H](CC(C)C)C(=O)N[C@H](CCC(=O)O)C(=O)N[C@H](CCCNC(=N)N)C(=O)N[C@H](CC(C)C)C(=O)N[C@H](CCCNC(=N)N)C(=O)N[C@H](CCCNC(=N)N)C(=O)N[C@H](CC(C)C)C(=O)N[C@H](C)C(=O)N[C@H](CCCCN)C(=O)N[C@H](CC(C)C)C(=O)N[C@@H](C(=O)N1CCC[C@@H]1C(=O)N[C@@H](C(=O)O)C(C)C)[C@H](C)O` [BCL-97] (H-W[dW][dL][dA][dR][dQ][dL][dE][dR][dL][dR][dR][dL][dA][dK][dL][dT][dP][dV]-OH; N-terminus and C-terminus assumed), for which the EC50 is less than 2000 nM.

For `CC(C)C[C@@H](NC(=O)[C@@H](Cc1c[nH]c2ccccc12)NC(=O)[C@H](N)Cc1ccccc1)C(=O)N[C@H](C)C(=O)N[C@H](CCCNC(=N)N)C(=O)N[C@H](CCC(N)=O)C(=O)N[C@H](CC(C)C)C(=O)N[C@H](C)C(=O)N[C@H](CCCNC(=N)N)C(=O)N[C@H](CC(C)C)C(=O)N[C@H](C)C(=O)N[C@H](CCC(N)=O)C(=O)N[C@H](CC(C)C)C(=O)N[C@H](C)C(=O)N[C@H](CCCCN)C(=O)N[C@H](CC(C)C)C(=O)N[C@@H](C(=O)N1CCC[C@@H]1C(=O)N[C@@H](C(=O)O)C(C)C)[C@H](C)O` [BCL-79] (H-[dF][dW][dL][dA][dR][dQ][dL][dA][dR][dL][dA][dQ][dL][dA][dK][dL][dT][dP][dV]-OH; N-terminus and C-terminus assumed), the EC50 was less than 2000 nM.
